Drawing on PubChem BioAssay AID248 (DTP/NCI, 2004), this text covers T/C for 16 compounds.

SMILES strings stand for the structures. Where “and” joins values, the source holds several entries; their conditions need not be identical. Equal entries are not always repeated. Inconclusive results and toxic doses are left out. Peptide text beside a SMILES is read from it. * marks the point of attachment. Cbz = O=C(OCc1ccccc1)*

The test system of the assay is L1210 leukemia ip in BDF1 mice, survival T/C. Nature of the assay: NCI In Vivo Anticancer Drug Screen. Data for tumor model L1210 Leukemia (intraperitoneal) in B6D2F1 (BDF1) mice. The following applies: endpoint: mean survival time, higher = longer survival. The procedure, abridged:
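Antitumor effect is assessed in tumor-bearing animals. Survival in the compound arm is compared with a vehicle-dosed control arm and expressed as their quotient.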

Setting [1] is: dose: 100.0 mg/kg/injection, schedule: Q04DX003 (ip), vehicle: saline.
[2] abbreviates: dose: 100.0 mg/kg/injection, schedule: Q04DX002 (ip), vehicle: Klucel (hydroxypropylcellulose) (HPC).
Setting [3] is: dose: 200.0 mg/kg/injection, schedule: Q04DX002 (ip), vehicle: Klucel (hydroxypropylcellulose) (HPC).
Setting [4] is: dose: 400.0 mg/kg/injection, schedule: Q04DX002 (ip), vehicle: Klucel (hydroxypropylcellulose) (HPC).
The mark [5] stands for this setting: dose: 100.0 mg/kg/injection, schedule: Q04DX003 (ip), vehicle: Klucel (hydroxypropylcellulose) (HPC).
Setting [6] is: dose: 200.0 mg/kg/injection, schedule: Q04DX003 (ip), vehicle: Klucel (hydroxypropylcellulose) (HPC).
Where [7] appears, read: dose: 400.0 mg/kg/injection, schedule: Q04DX003 (ip), vehicle: Klucel (hydroxypropylcellulose) (HPC).
The mark [8] stands for this setting: dose: 100.0 mg/kg/injection, schedule: Q01DX001 (ip), vehicle: saline with Tween-80.
[9] abbreviates: dose: 200.0 mg/kg/injection, schedule: Q01DX001 (ip), vehicle: saline with Tween-80.
Where [10] appears, read: dose: 100.0 mg/kg/injection, schedule: Q01DX009 (ip), vehicle: saline with Tween-80.
The mark [11] stands for this setting: dose: 100.0 mg/kg/injection, schedule: Q04DX003 (ip), vehicle: saline with Tween-80.
Where [12] appears, read: dose: 200.0 mg/kg/injection, schedule: Q01DX009 (ip), vehicle: saline with Tween-80.
Where [13] appears, read: dose: 200.0 mg/kg/injection, schedule: Q04DX003 (ip), vehicle: saline with Tween-80.
Setting [14] is: dose: 400.0 mg/kg/injection, schedule: Q01DX009 (ip), vehicle: saline with Tween-80.
Where [15] appears, read: dose: 400.0 mg/kg/injection, schedule: Q04DX003 (ip), vehicle: saline with Tween-80.

Regarding `CSc1n[nH]c(=O)[nH]c1=O`, the T/C was 100 % of control (dose: 100.0 mg/kg/injection, schedule: Q01DX001 (ip), vehicle: saline); 102 % of control (dose: 200.0 mg/kg/injection, schedule: Q01DX001 (ip), vehicle: saline); 94 % of control (dose: 400.0 mg/kg/injection, schedule: Q01DX001 (ip), vehicle: saline).

`Nc1ccc2cc(S(=O)(=O)O)ccc2c1`: the T/C runs as follows: under setting [1], 96 % of control; (dose: 200.0 mg/kg/injection, schedule: Q04DX003 (ip), vehicle: saline) 94 % of control; (dose: 400.0 mg/kg/injection, schedule: Q04DX003 (ip), vehicle: saline) 94 % of control.

For `CCOC(=O)NC1=C(NCCCl)C(=O)C(NC(=O)OCC)=C(NCCCl)C1=O`, the T/C by setting is: (dose: 6.25 mg/kg/injection, schedule: Q04DX003 (ip), vehicle: saline) 92 % of control; (dose: 12.5 mg/kg/injection, schedule: Q04DX003 (ip), vehicle: saline) 95 % of control; (dose: 25.0 mg/kg/injection, schedule: Q04DX003 (ip), vehicle: saline) 106 % of control; (dose: 50.0 mg/kg/injection, schedule: Q04DX003 (ip), vehicle: saline) 104 % of control; under setting [1], 90 % of control.

For the compound `OC1CC2(c3ccccc3)OC1(c1ccccc1)c1ccccc12` (stereo not given), the T/C was 112 % of control under setting [2], 101 % of control under setting [3] and 115 % of control under setting [4].

Consider `CN(C)c1ccc(/C=C/C=C/C(=O)c2ccccc2)cc1`, for which the T/C runs as follows: under setting [5], 88 % of control; under setting [6], 93 % of control; under setting [7], 93 % of control.

`O=S(=O)(CCCS(=O)(=O)Nc1ccccc1)Nc1ccccc1`: the T/C reads like this: under setting [8], 103 % of control; under setting [9], 97 % of control; (dose: 400.0 mg/kg/injection, schedule: Q01DX001 (ip), vehicle: saline with Tween-80) 90 % of control.

For `CC(NC(=O)OCc1ccccc1)C(=O)NC(CC(N)=O)C(=O)O` (stereo not drawn) (Cbz-Ala-Asn-OH; configuration not given here), the T/C is, setting by setting: (dose: 25.0 mg/kg/injection, schedule: Q04DX002 (ip), vehicle: Klucel (hydroxypropylcellulose) (HPC)) 95 % of control; (dose: 50.0 mg/kg/injection, schedule: Q04DX002 (ip), vehicle: Klucel (hydroxypropylcellulose) (HPC)) 95 % of control; under setting [2], 95 % of control.

As to `O=[N+]([O-])CC(O)C(F)(F)C(F)(F)C(F)(F)F` (stereo not given), the T/C under setting [5] is 105 % of control, the T/C under setting [6] is 100 % of control and the T/C under setting [7] is 100 % of control.

In the case of `CC(=O)Cc1cc(C)nc(/N=C(\N)N2CCCCC2)n1`, the T/C runs as follows: under setting [2], 92 % of control; under setting [3], 103 % of control; under setting [4], 96 % of control.

With `Cc1c2oc3c(C)ccc(C(=O)NC4C(=O)NC(C(C)C)C(=O)N5CCCC5C(=O)N(C)CC(=O)N(C)C(C(C)C)C(=O)OC4C)c3nc-2c(C(=O)NC2C(=O)NC(C(C)C)C(=O)N3CCCC3C(=O)N(C)CC(=O)N(C)C(C(C)C)C(=O)OC2C)c(NCCCO)c1=O` (stereo not given), the T/C is 95 % of control (dose: 0.07 mg/kg/injection, schedule: Q04DX003 (ip), vehicle: saline + alcohol); 116 % of control (dose: 0.1 mg/kg/injection, schedule: Q01DX009 (ip), vehicle: saline + alcohol); 107 % of control (dose: 0.15 mg/kg/injection, schedule: Q04DX003 (ip), vehicle: saline + alcohol); 106 % of control (dose: 0.2 mg/kg/injection, schedule: Q01DX001 (ip), vehicle: saline + alcohol); 108 % of control (dose: 0.3 mg/kg/injection, schedule: Q04DX003 (ip), vehicle: saline + alcohol); 107 % of control (dose: 0.4 mg/kg/injection, schedule: Q01DX001 (ip), vehicle: saline + alcohol). The T/C reads like this: (dose: 0.6 mg/kg/injection, schedule: Q04DX003 (ip), vehicle: saline + alcohol) 114 % of control; (dose: 0.62 mg/kg/injection, schedule: Q04DX003 (ip), vehicle: saline + alcohol) 111 % of control; (dose: 0.8 mg/kg/injection, schedule: Q01DX001 (ip), vehicle: saline + alcohol) 103 % of control; (dose: 1.0 mg/kg/injection, schedule: Q01DX001 (ip), vehicle: saline + alcohol) 112 % of control; (dose: 1.25 mg/kg/injection, schedule: Q04DX003 (ip), vehicle: saline + alcohol) 121 % of control; (dose: 1.6 mg/kg/injection, schedule: Q01DX001 (ip), vehicle: saline + alcohol) 95 % of control. Moreover, the T/C was 121 % of control (dose: 2.0 mg/kg/injection, schedule: Q01DX001 (ip), vehicle: saline + alcohol); 104 % of control (dose: 3.2 mg/kg/injection, schedule: Q01DX001 (ip), vehicle: saline + alcohol); 121 % of control (dose: 4.0 mg/kg/injection, schedule: Q01DX001 (ip), vehicle: saline + alcohol); 160 % of control (dose: 5.0 mg/kg/injection, schedule: Q04DX003 (ip), vehicle: saline + alcohol); 101 % of control and 116 % of control (dose: 12.5 micrograms/kg/injection, schedule: Q01DX009 (ip), vehicle: saline + alcohol); 98 % of control (dose: 25.0 micrograms/kg/injection, schedule: Q01DX009 (ip), vehicle: saline + alcohol). Further, the T/C (dose: 50.0 micrograms/kg/injection, schedule: Q01DX009 (ip), vehicle: saline + alcohol) is 106 % of control.

In the case of `CCCCCCCCCCCCCCCCCCN1CCSCC1`, the T/C by setting is: under setting [10], 96 % of control and 108 % of control; (dose: 100.0 mg/kg/injection, schedule: Q04DX002 (ip), vehicle: saline with Tween-80) 93 % of control and 103 % of control; under setting [11], 104 % of control; under setting [12], 100 % of control and 103 % of control; (dose: 200.0 mg/kg/injection, schedule: Q04DX002 (ip), vehicle: saline with Tween-80) 94 % of control and 91 % of control; under setting [13], 104 % of control. For the same compound, the T/C reads like this: under setting [14], 103 % of control and 110 % of control; (dose: 400.0 mg/kg/injection, schedule: Q04DX002 (ip), vehicle: saline with Tween-80) 98 % of control; under setting [15], 106 % of control.

Regarding `c1ccc2c(N=Nc3cccc4ccccc34)cccc2c1`, the T/C was 97 % of control (dose: 100.0 mg/kg/injection, schedule: Q01DX001 (ip), vehicle: carboxymethylcellulose (CMC)); 97 % of control (dose: 200.0 mg/kg/injection, schedule: Q01DX001 (ip), vehicle: carboxymethylcellulose (CMC)); 93 % of control (dose: 400.0 mg/kg/injection, schedule: Q01DX001 (ip), vehicle: carboxymethylcellulose (CMC)).

`CC(C)(C)C1=CC(=O)C(Cl)(C(C)(C)C)C(Cl)C1=O` (stereo not given): the T/C is, setting by setting: under setting [8], 97 % of control; under setting [9], 90 % of control.

For the compound `O=C(c1ccccc1)c1c(-c2ccccc2)c(C(=O)c2ccccc2)c2ccccc2c1Cl`, the T/C is, setting by setting: (dose: 6.25 mg/kg/injection, schedule: Q01DX009 (ip), vehicle: water) 96 % of control; (dose: 12.5 mg/kg/injection, schedule: Q01DX009 (ip), vehicle: water) 97 % of control; (dose: 25.0 mg/kg/injection, schedule: Q01DX009 (ip), vehicle: water) 94 % of control and 117 % of control; (dose: 50.0 mg/kg/injection, schedule: Q01DX009 (ip), vehicle: water) 94 % of control and 97 % of control; (dose: 100.0 mg/kg/injection, schedule: Q01DX009 (ip), vehicle: water) 101 % of control; (dose: 200.0 mg/kg/injection, schedule: Q01DX009 (ip), vehicle: water) 101 % of control. For the same compound, the T/C (dose: 400.0 mg/kg/injection, schedule: Q01DX009 (ip), vehicle: water) is 97 % of control.

For the compound `COC(OC)c1cc(=O)n(C)c(=O)[nH]1`, the T/C under setting [11] is 104 % of control; the T/C under setting [12] was 93 % of control; the T/C under setting [13] was 104 % of control; the T/C under setting [14] is 89 % of control; the T/C under setting [15] is 100 % of control.

As for `Clc1ccc(Oc2ccc(N3C=Nc4ccc(Oc5ccc(Cl)cc5)cc4C3)cc2)cc1`, the T/C is, setting by setting: under setting [10], 98 % of control; under setting [11], 97 % of control; under setting [12], 96 % of control; under setting [13], 94 % of control; under setting [14], 93 % of control; under setting [15], 89 % of control.
